Legend:
EW-1 (Ewing's Sarcoma) [1] = assay: Bliss excess, mean over the matrix (fraction); higher = more synergy
Procedure, shortened: (§1)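 Bliss excess equals the observed combination effect minus the expected value EA + EB − EA·EB, where EA and EB are the effects of each agent alone. Combination Emax is the second-highest inhibition within the matrix. Inhibition was scaled from CellTiter-Glo 2.0 luminescence, with 0 set by vehicle wells and 1 by blank wells, after 72 hours of two-drug dosing of cells plated in 1536-well plates.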

[2] = test system: G-401 (Other Solid Carcinomas); assay: as above
Procedure, shortened: as §1

Hey (Ovarian Carcinoma) = assay: as above
Procedure, shortened: as §1

[3] = test system: KOPN-8 (B-Lymphoblastic Leukemia); assay: as above
Procedure, shortened: as §1

[4] = test system: LC-1-sq (Squamous Cell Lung Carcinoma); assay: as above
Procedure, shortened: as §1

[5] = test system: NCI-H2122 (Lung Adenocarcinoma); assay: as above
Procedure, shortened: as §1

[6] = test system: ALL-SIL (T-Lymphoblastic Leukemia); assay: combination Emax (second highest fraction inhibited in the dose matrix, 72 h); higher = more inhibition; extreme values may be limits of the assay
Procedure, shortened: as §1

[7] = test system: CADO-ES1 (Ewing's Sarcoma); assay: as above
Procedure, shortened: as §1

[8] = test system: DU-145 (Prostate Carcinoma); assay: as above
Procedure, shortened: as §1

EW-1 (Ewing's Sarcoma) [9] = assay: as above
Procedure, shortened: as §1

[10] = test system: G-401 (Other Solid Carcinomas); assay: as above
Procedure, shortened: as §1

[11] = test system: HCC1500 (Breast Carcinoma); assay: as above
Procedure, shortened: as §1

[12] = test system: HCC1937 (Breast Carcinoma); assay: as above
Procedure, shortened: as §1

[13] = test system: HCC2998 (Colorectal Carcinoma); assay: as above
Procedure, shortened: as §1

[14] = test system: LC-1-sq (Squamous Cell Lung Carcinoma); assay: as above
Procedure, shortened: as §1

[15] = test system: NCI-H1838 (Lung Adenocarcinoma); assay: as above
Procedure, shortened: as §1

[16] = test system: NCI-H2122 (Lung Adenocarcinoma); assay: as above
Procedure, shortened: as §1

[17] = test system: NCI-H650 (Lung Adenocarcinoma); assay: as above
Procedure, shortened: as §1

[18] = test system: OACM5-1 (Esophageal Adenocarcinoma); assay: as above
Procedure, shortened: as §1

[19] = test system: SK-LU-1 (Lung Adenocarcinoma); assay: as above
Procedure, shortened: as §1

| Compound | Bliss excess (EW-1 (Ewing's Sarcoma) [1]) | Bliss excess [2] | Bliss excess (Hey (Ovarian Carcinoma)) | Bliss excess [3] | Bliss excess [4] | Bliss excess [5] | combination Emax [6] | combination Emax [7] | combination Emax [8] | combination Emax (EW-1 (Ewing's Sarcoma) [9]) | combination Emax [10] | combination Emax [11] | combination Emax [12] | combination Emax [13] | combination Emax [14] | combination Emax [15] | combination Emax [16] | combination Emax [17] | combination Emax [18] | combination Emax [19] |
| --- | --- | --- | --- | --- | --- | --- | --- | --- | --- | --- | --- | --- | --- | --- | --- | --- | --- | --- | --- | --- |
| Cc1cc2ncnn2cc1Nc1ncc2c(n1)n(C1CCOCC1)c(=O)n2C [AZD7648] + C=CCn1c(=O)c2cnc(Nc3ccc(N4CCN(C)CC4)cc3)nc2n1-c1cccc(C(C)(C)O)n1 [AZD1775] (first compound max 10 µM, partner max 1 µM) | 0.0272 | -0.0029 | -0.0086 | -0.0472 | 0.0567 | -0.0122 | 0.867 | 0.45 | 0.289 | 0.832 | 0.674 | 0.424 | 0.52 | 0.628 | 0.91 | 0.569 | 0.766 | 0.288 | 0.473 | – |
| N#Cc1cnc(Nc2cc(NC[C@H]3CNCCO3)c(C(F)(F)F)cn2)cn1 [SRA737] + O=c1[nH]cc(F)c(=O)[nH]1 [5-Fluorouracil] (first compound max 10 µM, 7x7, partner max 20 µM) | – | – | – | – | – | – | – | – | 0.439 | – | – | – | – | – | – | – | – | – | – | 0.369 |
| Cc1cc2ncnn2cc1Nc1ncc2c(n1)n(C1CCOCC1)c(=O)n2C [AZD7648] + C[C@@H]1COCCN1C2=NC(=NC(=C2)C3(CC3)[S@](=N)(=O)C)C4=C5C=CNC5=NC=C4 [AZD6738] (first compound max 10 µM, 7x7, partner max 10 µM) | 0.024 | -0.0143 | 0.0229 | -0.0187 | 0.0311 | 0.0176 | 0.925 | 0.824 | 0.478 | 0.871 | 0.379 | 0.383 | 0.527 | 0.87 | 0.827 | 0.612 | 0.949 | 0.138 | 0.443 | – |
| Cc1cc2ncnn2cc1Nc1ncc2c(n1)n(C1CCOCC1)c(=O)n2C [AZD7648] + CCN(CCO)CCCOc1ccc2c(Nc3cc(CC(=O)Nc4cccc(F)c4)[nH]n3)ncnc2c1 [AZD2811] (first compound max 10 µM, 7x7, partner max 1 µM) | 0.053 | -0.0176 | 0.113 | 0.0713 | 0.0569 | 0.0547 | 0.97 | 0.377 | 0.209 | 0.312 | 0.51 | 0.445 | 0.234 | 0.191 | 0.325 | 0.506 | 0.355 | 0.14 | 0.293 | – |
| COc1cc2c(cc1OCCCCCOc1cc3c(cc1OC)C(=O)N1C=C(C)C[C@H]1C=N3)N=C[C@@H]1CC(C)=CN1C2=O [SG3199] + O=C(c1cc(Cc2n[nH]c(=O)c3ccccc23)ccc1F)N1CCN(C(=O)C2CC2)CC1 [Olaparib] (first compound max 0.001 µM, 7x7, partner max 10 µM) | 0.0403 | -0.0211 | -0.0086 | -0.0265 | -0.0029 | 0.0073 | 0.337 | 0.325 | 0.104 | 0.636 | 0.32 | 0.125 | 0.14 | 0.389 | 0.187 | 0.14 | 0.21 | 0.136 | 0.0893 | – |
| CN(CCO)CC[C@H](CSc1ccccc1)Nc1ccc(S(=O)(=O)NC(=O)c2ccc(N3CCC([C@@H](O)c4ccccc4-c4ccc(Cl)cc4)CC3)cc2)cc1S(=O)(=O)C(F)(F)F [AZD4320] + CC(=O)O[C@H]1C(=O)[C@@]2(C)[C@H]([C@H](OC(=O)c3ccccc3)[C@]3(O)C[C@H](OC(=O)[C@H](O)[C@@H](NC(=O)c4ccccc4)c4ccccc4)C(C)=C1C3(C)C)[C@]1(OC(C)=O)CO[C@@H]1C[C@@H]2O [Paclitaxel] (first compound max 1 µM, 7x7, partner max 3 µM) | – | – | – | – | – | – | – | – | 0.818 | – | – | – | – | – | – | – | – | – | – | 0.741 |
| Cc1cc2ncnn2cc1Nc1ncc2c(n1)n(C1CCOCC1)c(=O)n2C [AZD7648] + COc1cc([C@@H]2c3cc4c(cc3[C@@H](O[C@@H]3O[C@@H]5CO[C@@H](C)O[C@H]5[C@H](O)[C@H]3O)[C@H]3COC(=O)[C@H]23)OCO4)cc(OC)c1O [Etoposide] (first compound max 10 µM, 7x7, partner max 10 µM) | – | – | – | – | – | – | – | – | 0.441 | – | – | – | – | – | – | – | – | – | – | 0.47 |
| N#Cc1cnc(Nc2cc(NC[C@H]3CNCCO3)c(C(F)(F)F)cn2)cn1 [SRA737] + Nc1ccn([C@@H]2O[C@H](CO)[C@@H](O)C2(F)F)c(=O)n1 [Gemcitabine] (first compound max 10 µM, 7x7, partner max 0.3 µM) | – | – | – | – | – | – | – | – | 0.544 | – | – | – | – | – | – | – | – | – | – | 0.389 |
| N#Cc1cnc(Nc2cc(NC[C@H]3CNCCO3)c(C(F)(F)F)cn2)cn1 [SRA737] + CCc1c2c(nc3ccc(O)cc13)-c1cc3c(c(=O)n1C2)COC(=O)[C@]3(O)CC [SN-38] (first compound max 10 µM, 7x7, partner max 0.3 µM) | – | – | – | – | – | – | – | – | 0.628 | – | – | – | – | – | – | – | – | – | – | 0.639 |

— the supplement of paper PMC11061612
